Measured values as given in the supplement of paper PMC7840683.

System: HepaRG
Assay: LDH release cytotoxicity, % of total lysis control; higher = more cytotoxic
Details: 48 h
Outline: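 Eight-point half-log series of test chemicals, the highest at 100 µM, were given in duplicate for 48 h to single-lot HepaRG cells on collagen I-coated 96-well plates in serum-free induction medium with 0.5% DMSO. A Tecan Safire read resorufin fluorescence from CytoTox-ONE as a measure of LDH in 50 µL spent medium, with 0.1% Triton X in total lysis wells. Percent cytotoxicity was normalized to on-plate vehicle and total lysis controls and averaged over the duplicates.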

Cc1cc2c3c(c1)C(c1ccccc1)=NC(NC(=O)c1ccncc1)C(=O)N3CC2 (configuration not stated) [CI-1018]
Details	LDH release cytotoxicity [%]
0.03162 µM	-1.91
0.1 µM	-1.63
0.3162278 µM	-1.51
1 µM	-2.27
3.16228 µM	-1.93
10 µM	-1.89
31.6228 µM	-2.24
100 µM	5.94

CC(C)CCCCCCCOC(=O)c1ccccc1C(=O)OCCCCCCCC(C)C
Details	LDH release cytotoxicity [%]
0.03162 µM	-1.32
0.1 µM	-1.15
0.3162278 µM	-1.36
1 µM	-1.26
3.16228 µM	-0.979
10 µM	-0.985
31.6228 µM	-0.631
100 µM	0.487

CCC1OC(=O)C(C)C(OC2CC(C)(OC)C(O)C(C)O2)C(C)C(OC2OC(C)CC(N(C)C)C2O)C(C)(O)CC(C)C(=O)C(C)C(O)C1(C)O (configuration not stated) [Erythromycin]
Details	LDH release cytotoxicity [%]
0.02356 µM	-1.71
0.0745 µM	-2.96
0.23559 µM	-1.94
0.745 µM	-3.63
2.3559 µM	-3.02
7.45 µM	-2.85
23.559 µM	-1.9
74.5 µM	-0.102

COC(=O)c1ccccc1C(=O)OC [Dimethyl phthalate]
Details	LDH release cytotoxicity [%]
0.03162 µM	-0.705
0.1 µM	-1.99
0.3162278 µM	-1.58
1 µM	-2.6
3.16228 µM	-1.11
10 µM	-0.678
31.6228 µM	-0.11
100 µM	1.18

Cc1cc2c(cc1C(F)(F)F)N(C(=O)Nc1ccc(Oc3cccnc3C)nc1)CC2
Details	LDH release cytotoxicity [%]
0.0295673 µM	-7.63
0.0935 µM	-7.9
0.295673 µM	-7.01
0.935 µM	-8.47
2.95673 µM	-7.66
9.35 µM	-6.19
29.5673 µM	68.937
93.5 µM	72.5

[N-]=[N+]=[N-] [Sodium azide]
Details	LDH release cytotoxicity [%]
0.03162 µM	-0.587
0.1 µM	-0.947
0.3162278 µM	-1.17
1 µM	-1.29
3.16228 µM	-1.23
10 µM	-0.668
31.6228 µM	-0.413
100 µM	7.38

Cc1cn(C2C=CC(CO)O2)c(=O)[nH]c1=O (configuration not stated) [Stavudine]
Details	LDH release cytotoxicity [%]
0.03162 µM	-0.726
0.1 µM	-0.277
0.3162278 µM	0.0542
1 µM	0.024
3.16228 µM	-0.127
10 µM	0.3
31.6228 µM	0.433
100 µM	2.36

CCCCCCCCCCCCCCCCO [1-Hexadecanol]
Details	LDH release cytotoxicity [%]
0.0320971 µM	-2.16
0.1015 µM	-2.95
0.320971 µM	-2.48
1.015 µM	-3.51
3.2097118 µM	-3.1
10.15 µM	-2.1
32.0971 µM	-1.56
101.5 µM	3.36

CCOC(=O)C(C)Oc1ccc(Oc2nc3ccc(Cl)cc3o2)cc1 (configuration not stated) [Fenoxaprop-ethyl]
Details	LDH release cytotoxicity [%]
0.03162 µM	-2.02
0.1 µM	-2.51
0.3162278 µM	-2.8
1 µM	-2.59
3.16228 µM	-2.21
10 µM	-2.46
31.6228 µM	-1.44
100 µM	-1.21

C#CC1(O)CCC2C3CCc4cc(O)ccc4C3CCC21C (stereo not drawn) [17alpha-Ethinylestradiol]
Details	LDH release cytotoxicity [%]
0.03162 µM	-0.935
0.1 µM	-0.618
0.3162278 µM	-0.346
1 µM	-0.588
3.16228 µM	-0.768
10 µM	-0.554
31.6228 µM	0.171
100 µM	1.412

CC(C)(OOC(C)(C)c1ccccc1)c1ccccc1 [Dicumyl peroxide]
Details	LDH release cytotoxicity [%]
0.03162 µM	-3.28
0.1 µM	-3.3
0.3162278 µM	-1.36
1 µM	-1.54
3.16228 µM	-0.973
10 µM	-1.43
31.6228 µM	-0.756
100 µM	-0.201

C=CC1(C)OC(=O)N(c2cc(Cl)cc(Cl)c2)C1=O (configuration not stated) [Vinclozolin]
Details	LDH release cytotoxicity [%]
0.031623 µM	-0.342
0.1 µM	-2.45
0.316228 µM	-2.11
1 µM	-1.77
3.16228 µM	-1.59
10 µM	-1.87
31.6228 µM	-1.19
100 µM	0.481

C=CCOC(=O)C(C)(C)OC(=O)c1cc(-n2c(=O)cc(C(F)(F)F)n(C)c2=O)ccc1Cl [Butafenacil]
Details	LDH release cytotoxicity [%]
0.0317809 µM	-1.79
0.1005 µM	-0.9
0.317809 µM	-0.684
1.005 µM	-2.04
3.17809 µM	-1.27
10.05 µM	-0.764
31.7809 µM	-0.16
100.5 µM	1.19

Clc1cccc(Cl)c1Cl [1,2,3-Trichlorobenzene]
Details	LDH release cytotoxicity [%]
0.031623 µM	-0.151
0.1 µM	-2.59
0.316228 µM	-3.02
1 µM	-2.67
3.16228 µM	-3.67
10 µM	-2.75
31.6228 µM	-2
100 µM	-0.185

CCCC(=O)OCC [Ethyl butyrate]
Details	LDH release cytotoxicity [%]
0.03162 µM	-2.73
0.1 µM	-1.76
0.3162278 µM	-1.67
1 µM	-2.36
3.16228 µM	-1.92
10 µM	-0.558
31.6228 µM	0.726
100 µM	0.69

CCCSP(=O)(OCC)SCCC [Ethoprop]
Details	LDH release cytotoxicity [%]
0.0325715 µM	-0.633
0.103 µM	-0.669
0.325715 µM	-0.697
1.03 µM	-0.356
3.25715 µM	-0.537
10.3 µM	-0.345
32.5715 µM	0.55
103 µM	2.97

O=C(O)C(Cl)(Cl)Cl [Sodium trichloroacetate]
Details	LDH release cytotoxicity [%]
0.03162 µM	-0.75
0.1 µM	-0.518
0.3162278 µM	-1.06
1 µM	-0.987
3.16228 µM	-1.23
10 µM	-0.588
31.6228 µM	0.00119
100 µM	0.935

Cc1ccc(C)c(O)c1C [2,3,6-Trimethylphenol]
Details	LDH release cytotoxicity [%]
0.03162 µM	-2.75
0.1 µM	-1.45
0.3162278 µM	-1.53
1 µM	-1.64
3.16228 µM	-1.22
10 µM	-0.829
31.6228 µM	-0.517
100 µM	0.375

CCCCOCCOCCO [2-(2-Butoxyethoxy)ethanol]
Details	LDH release cytotoxicity [%]
0.03162 µM	-0.987
0.1 µM	-1.94
0.3162278 µM	-1.79
1 µM	-2.09
3.16228 µM	-2.29
10 µM	-1.67
31.6228 µM	-1.25
100 µM	-0.813
